Laboratory results: patent US20050032646A1, “Agents for the regulation of gametophytic self-incompatibility and a control method for the breakdown of gametophytic self-incompatibility using the agents” (priority 2002, published 2005)

Experiments:
[1] = tested on: style-specific S RNase of Fuji apple; assay: Inhibition of the activity of a style-specific S RNase by the agents; assay type: biochemical; conditions: optical density at 260 nm (A260), agent 2.0 mM, no treatment 1.10
Description: Inhibition of S RNase activity by an agent of the present invention was measured as follows: The standard solution of 500 μL of 10 mM sodium phosphate (pH 7.0) with an agent (2.0 mM), and 500 μL of torula yeast rRNA (5 mg/mL) was pre-incubated for 10 min at 37° C. To the substrate solution, the 20 μL of the style-specific S RNase (200 ng) of Fuji apple was added, then the solution was incubated for 30 min at 37° C. A fraction of 200 μL was collected and 40 μL of stop buffer (ice-cold 25% HCIO4, 0.75% uranyl acetate) was added, then mixed and centrifuged at 12,000 rpm for 5 min. And 50 μL of the supernatant was diluted with 950 μL of dd H2O, then the solution was centrifuged and measured the optical density at 260 nm (A260) (Singh A. et al., Plant Physilolgy, 96: 61-68,1991).

[2] = tested on: Hongro apple flowers; assay: Side-effect of the agents toward Hongro apple flowers; assay type: in vivo; set-up: key: 0: no side-effect is observed, and it is same as no treatment of the agents; 1: the side-effect are observed in flowers, but they recover to normal fruition in a week; 2: a fall-out of flowers and 10% decrease in fruition rate; 3: about 40% loss; 4: 60% loss; 5: a severe loss in fruition
Description: To investigate the side-effect of the agent, various concentrations of the agents were treated to the flowers of Hongro apple.

[3] = tested on: 20-Century pear; assay: Breakdown of the self-incompatibility in 20-century pear (fertilization rate, field); assay type: in vivo; conditions: 600 μM, sprayed 5 and 2 days before full bloom, 14 days after the treatment
Description: In a field test, 20-Century pear (the Rosaceae) which has self-incompatibility system was isolated single-genetically by covering up selected branches or whole plants with a fine-meshed net to exclude any pollinating insects. The aqueous of 600 μM solution of an agent of the present invention was treated enough to get-wet flowers with a micro-spray at 9:00-11:00 AM. The agent solution was micro-sprayed 2 times; first at 5 days before full bloom and second at 2 days before full bloom. The reference was artificial cross-pollination at full bloom. The fertilization rate was investigated 14 days after the treatment and compared with no treatment and artificial cross-pollination.

[4] = tested on: Lycopersicon peruvianum; assay: Breakdown of the self-incompatibility in Lycopersicon peruvianum (fruition rate, greenhouse); assay type: in vivo
Description: To verify the inhibition of a style-specific S RNase and the suppression of SI system with an agent of the present invention in a practical cultivating Environment, a wild-type tomato (Lycopersicon peruvianum) which has a gametophytic SI system was cultivated in a greenhouse at genetically insulated environment and was treated with an S RNase inhibitor of the present invention.
To determine the treatment period of an S RNase inhibitor, the inhibitor was applied to flowers either at the early blooming period (budding formation period to full blooming), or the middle blooming period (full blooming), or the late blooming period (1 day after full blooming period of petal), respectively. Each inhibitors in 0.1 mM aqueous solution (except the ZnSO4 (1 mM) and CuSO4 (1.0 mM) solution) was treated enough to get-wet flowers ith a micro-spray at 9:00-11:00 AM when the pollination of plant occurs most actively. The experiment with 25 blooming flowers (organ containing a stamen, a stigma, a petal, etc.) was repeated 4 times and the fruition rate ws investigated and the results are shown in Table 2.

[5] = tested on: Safinia purple; assay: Breakdown of self-incompatibility and seed production of Safinia purple; assay type: in vivo, Safinia purple (petunia)
Description: To establish the application method of the SI suppressing agent for the seed production, a field experiment was performed with Safinia purple ( the Solanaceae, a petunia developed by Suntory Ltd).
To a 15 cm-radii round pot, were added fine soil (pH 5.6) and 2 gr of complex fertilizer (including N, P, K 8% each) and they were mixed well. Safinia purple of 10 cm height were planted and raised in a green house for 2 weeks. At the period of 30 % bloom the diluted aqueous solutions of Zn(II) propionate or Cu(II) propionate agent were micro-sprayed enough to wet a flower and a style(3 ml). Two days after treatment of the agent, self-pollen was pollinated to its own style and the seed production was investigated. The experiments were repeated twice.

[6] = tested on: Hongro apple; assay: Breakdown of the self-incompatibility in Hongro apple (self-pollination rate, field); assay type: in vivo; conditions: 25 days after the treatment
Description: In the field application experiment, Hongro apple (the Rosaceae) which has a very low self-pollination rate (<5%) was isolated single-genetically by covering up whole plants with a fine-meshed net to exclude any pollinating insects. The agent of the present invention was treated enough to get-wet flowers at various concentrations with a micro-spray at 9:00-11:00 AM. The target of the agent was the first-blooming primary apple flower. The self-pollination rate was investigated 25 days after the treatment and compared with no treatment and artificial cross-pollination.

[7] = agent 0.1 mM, treated 1 day after full blooming
[8] = agent 0.1 mM, treated 1 day before full blooming
[9] = agent 0.1 mM, treated 2 days after full blooming
[10] = agent 0.1 mM, treated 2 days before full blooming
[11] = agent 0.1 mM, treated 3 days before full blooming
[12] = agent 0.1 mM, treated 4 days before full blooming
[13] = agent 0.1 mM, treated 5 days before full blooming
[14] = agent 0.1 mM, treated 6 days before full blooming
[15] = agent 0.1 mM, treated 7 days before full blooming
[16] = agent 0.1 mM, treated at full blooming (0 day)
[17] = agent 1.0 mM, treated 1 day after full blooming
[18] = agent 1.0 mM, treated 1 day before full blooming
[19] = agent 1.0 mM, treated 2 days after full blooming
[20] = agent 1.0 mM, treated 2 days before full blooming
[21] = agent 1.0 mM, treated 3 days before full blooming
[22] = agent 1.0 mM, treated 4 days before full blooming
[23] = agent 1.0 mM, treated 5 days before full blooming
[24] = agent 1.0 mM, treated 6 days before full blooming
[25] = agent 1.0 mM, treated 7 days before full blooming
[26] = agent 1.0 mM, treated at full blooming (0 day)

Row | SMILES | OD (2.0 mM) [1] | side-effect index ([2]; 1.0 mM) | side-effect index ([2]; 5.0 mM) | side-effect index ([2]; 20.0 mM) | fertilization rate [3] [%] | fruition rate [4, 7] [%] | fruition rate [4, 8] [%] | fruition rate [4, 9] [%] | fruition rate [4, 10] [%] | fruition rate [4, 11] [%] | fruition rate [4, 12] [%] | fruition rate [4, 13] [%] | fruition rate [4, 14] [%] | fruition rate [4, 15] [%] | fruition rate [4, 16] [%] | self-pollination rate ([6]; concentration 0.01 mM) [%] | self-pollination rate ([6]; concentration 0.03 mM) [%] | self-pollination rate ([6]; concentration 0.10 mM) [%] | self-pollination rate ([6]; concentration 0.30 mM) [%] | self-pollination rate ([6]; concentration 1.0 mM) [%] | other results
1 | COCCOCCOCC(=O)[O-].COCCOCCOCC(=O)[O-].[Cu+2] [Cu(II) 2-(2-methoxyethoxy)ethoxyacetete, Cu(II) 2-(2-methoxyethoxy) ethoxyacetete] | 0.63 | 0 | 0 | 1 | 53 | 0 | >60 | 0 | >50 | >10 | <10 | 0 | 0 | 0 | >50 | – | – | – | – | – | –
2 | COCCOCC(=O)[O-].COCCOCC(=O)[O-].[Cu+2] [Cu(II) 2-methoxyethoxyacetate] | 0.65 | 0 | 0 | 2 | 58 | 0 | >50 | 0 | >40 | >10 | <10 | 0 | 0 | 0 | >40 | – | – | – | – | – | –
3 | O=C([O-])[C@H](O)[C@@H](O)[C@H](O)[C@H](O)CO.O=C([O-])[C@H](O)[C@@H](O)[C@H](O)[C@H](O)CO.[Cu+2] [Cu(II) Gluconate] | 0.70 | – | – | – | 51 | – | – | – | – | – | – | – | – | – | – | – | – | – | – | – | –
4 | CCC(=O)[O-].CCC(=O)[O-].[Cu+2] [Cu(II) Propionate] | 0.73 | 0 | 0 | 1 | 53 | – | – | – | – | – | – | – | – | – | – | – | – | – | – | – | seed production relative (%) to control ([5]; concn 10 μM): 485.7%; self-pollination pollination ratio (%) ([5]; concn 10 μM): 47.6%; self-pollination relative (%) to control ([5]; concn 10 μM): 2000%; seed production relative (%) to control ([5]; concn 30 μM): 1714.3%; self-pollination pollination ratio (%) ([5]; concn 30 μM): 52.1%; self-pollination relative (%) to control ([5]; concn 30 μM): 2500%; seed production relative (%) to control ([5]; concn 100 μM): 2228.6%; self-pollination pollination ratio (%) ([5]; concn 100 μM): 82.6%; self-pollination relative (%) to control ([5]; concn 100 μM): 3800%; seed production relative (%) to control ([5]; concn 300 μM): 1471.4%; self-pollination pollination ratio (%) ([5]; concn 300 μM): 74.3%; self-pollination relative (%) to control ([5]; concn 300 μM): 2600%; seed production relative (%) to control ([5]; concn 1000 μM): 2342.9%; self-pollination pollination ratio (%) ([5]; concn 1000 μM): 76.2%; self-pollination relative (%) to control ([5]; concn 1000 μM): 3200%
5 | O=S(=O)([O-])[O-].[Cu+2] [CuSO4, reference compound] | 0.70 | 3 | 5 | 5 | – | – | – | – | – | – | – | – | – | – | – | 0 | 0 | 0 | 0 | <10 | fruition rate [4, 17]: 0%; fruition rate [4, 18]: 0%; fruition rate [4, 19]: 0%; fruition rate [4, 20]: 0%; fruition rate [4, 21]: <5%; fruition rate [4, 22]: <5%; fruition rate [4, 23]: >10%; fruition rate [4, 24]: >10%; fruition rate [4, 25]: >10%; fruition rate [4, 26]: 0%
6 | COCCOCCOCC(=O)[O-].COCCOCCOCC(=O)[O-].[Zn+2] [Zn(II) 2-(2-methoxyethoxy)ethoxyacetete, Zn(II) 2-(2-methoxyethoxy) ethoxyacetete] | 0.62 | 0 | 0 | 1 | 51 | 0 | >60 | 0 | >50 | >10 | <10 | 0 | 0 | 0 | >50 | – | – | – | – | – | –
7 | COCCOCC(=O)[O-].COCCOCC(=O)[O-].[Zn+2] [Zn(II) 2-methoxyethoxyacetate] | 0.64 | 0 | 0 | 1 | 53 | 0 | >60 | 0 | >50 | >10 | <10 | 0 | 0 | 0 | >40 | >10 | >40 | >60 | >60 | >60 | –
8 | O=C([O-])[C@H](O)[C@@H](O)[C@H](O)[C@H](O)CO.O=C([O-])[C@H](O)[C@@H](O)[C@H](O)[C@H](O)CO.[Zn+2] [Zn(II) Gluconate] | 0.73 | – | – | – | 48 | – | – | – | – | – | – | – | – | – | – | – | – | – | – | – | –
9 | O=S(=O)([O-])[O-].[Zn+2] [ZnSO4, reference compound] | 0.72 | 2 | 5 | 5 | – | – | – | – | – | – | – | – | – | – | – | 0 | 0 | 0 | 0 | <10 | fruition rate [4, 17]: 0%; fruition rate [4, 18]: 0%; fruition rate [4, 19]: 0%; fruition rate [4, 20]: 0%; fruition rate [4, 21]: <5%; fruition rate [4, 22]: >5%; fruition rate [4, 23]: >5%; fruition rate [4, 24]: >10%; fruition rate [4, 25]: >10%; fruition rate [4, 26]: 0%
